Test results from ChEMBL document CHEMBL3885861, “Open TG-GATES”.

Species on record: Rattus norvegicus
Assay: Open TG-GATES - Regimen: Single
Format: toxicity, organism-based, Sprague-Dawley
Parameters: regimen Single, gender Male, age 6 weeks
Settings: in vivo, po, 80 mg/kg, route gavage, dose level Middle; for APTT / Bas / Eos / Fbg / Hb / Ht / Lym / MCH / MCHC / MCV / Mono / Neu / PT / Plat / RBC / Ret / WBC: tissue Blood; for KIDNEY_L / KIDNEY_R / KIDNEY_TOTAL: tissue Kidney; for LIVER: tissue Liver; for A/G / ALP / ALT / AST / BUN / CRE / Ca / Cl / DBIL / GLC / IP / K / LDH / Na / PL / RALB / TBIL / TC / TG / TP / gamma-GTP: tissue Plasma

## CCSCC[C@H](N)C(=O)O [ETHIONINE]
3 h
  TERMINAL_BW: 217.5 g
  APTT: 18.6 s
  Bas: 0%
  Eos: 1%
  Fbg: 209 mg/dL
  Hb: 13.4 g/dL
  Ht: 39.6%
  Lym: 77.8%
  MCH: 21.3 pg
  MCHC: 33.9%
  MCV: 62.7 fL
  Mono: 2.8%
  Neu: 17.6%
  PT: 12.4 s
  Plat: 119.9 x10_4/uL
  RBC: 631.4 x10_4/ul
  Ret: 6.8%
  WBC: 71.3 x10_2/uL
  KIDNEY_L: 1 g
  KIDNEY_R: 1 g
  KIDNEY_TOTAL: 1.9 g
  LIVER: 9.9 g
  A/G: 1.6
  ALP: 765.4 IU/L
  ALT: 33 IU/L
  AST: 62.8 IU/L
  BUN: 10.4 mg/dL
  CRE: 0.4 mg/dL
  Ca: 10.3 mg/dL
  Cl: 101.4 meq/L
  DBIL: 0.052 mg/dL
  GLC: 207.4 mg/dL
  IP: 10 mg/dL
  K: 3.8 meq/L
  LDH: 171.6 IU/L
  Na: 140.4 meq/L
  PL: 120.8 mg/dL
  RALB: 3.3 g/dL
  TBIL: 0.1 mg/dL
  TC: 68.2 mg/dL
  TG: 43.8 mg/dL
  TP: 5.4 g/dL
  gamma-GTP: 1.4 IU/L
6 h
  TERMINAL_BW: 212.9 g
  APTT: 18.2 s
  Bas: 0%
  Eos: 1%
  Fbg: 215 mg/dL
  Hb: 13.5 g/dL
  Ht: 39.6%
  Lym: 79.4%
  MCH: 21.4 pg
  MCHC: 34.1%
  MCV: 62.7 fL
  Mono: 2.2%
  Neu: 16.6%
  PT: 12.9 s
  Plat: 116.1 x10_4/uL
  RBC: 632 x10_4/ul
  Ret: 6.3%
  WBC: 88 x10_2/uL
  KIDNEY_L: 1 g
  KIDNEY_R: 1 g
  KIDNEY_TOTAL: 1.9 g
  LIVER: 9.2 g
  A/G: 1.7
  ALP: 877.2 IU/L
  ALT: 35.6 IU/L
  AST: 65.2 IU/L
  BUN: 10.6 mg/dL
  CRE: 0.3 mg/dL
  Ca: 10.3 mg/dL
  Cl: 102.6 meq/L
  DBIL: 0.058 mg/dL
  GLC: 207.4 mg/dL
  IP: 9.4 mg/dL
  K: 3.7 meq/L
  LDH: 191.2 IU/L
  Na: 140.4 meq/L
  PL: 116.6 mg/dL
  RALB: 3.3 g/dL
  TBIL: 0.1 mg/dL
  TC: 58.8 mg/dL
  TG: 54.2 mg/dL
  TP: 5.4 g/dL
  gamma-GTP: 1 IU/L
9 h
  TERMINAL_BW: 215.1 g
  APTT: 19.5 s
  Bas: 0%
  Eos: 1%
  Fbg: 205.4 mg/dL
  Hb: 13.3 g/dL
  Ht: 39%
  Lym: 76%
  MCH: 21 pg
  MCHC: 34.1%
  MCV: 61.4 fL
  Mono: 2.4%
  Neu: 19.4%
  PT: 13.1 s
  Plat: 117 x10_4/uL
  RBC: 634.6 x10_4/ul
  Ret: 6.7%
  WBC: 77.6 x10_2/uL
  KIDNEY_L: 1 g
  KIDNEY_R: 1 g
  KIDNEY_TOTAL: 1.9 g
  LIVER: 9.1 g
  A/G: 1.5
  ALP: 727 IU/L
  ALT: 28.8 IU/L
  AST: 54.8 IU/L
  BUN: 10.6 mg/dL
  CRE: 0.3 mg/dL
  Ca: 10.4 mg/dL
  Cl: 101.4 meq/L
  DBIL: 0.086 mg/dL
  GLC: 197.6 mg/dL
  IP: 9.7 mg/dL
  K: 3.6 meq/L
  LDH: 174.2 IU/L
  Na: 140.6 meq/L
  PL: 133 mg/dL
  RALB: 3.4 g/dL
  TBIL: 0.1 mg/dL
  TC: 70.4 mg/dL
  TG: 95.6 mg/dL
  TP: 5.6 g/dL
  gamma-GTP: 1.4 IU/L
24 h
  TERMINAL_BW: 227.7 g
  APTT: 20.7 s
  Bas: 0%
  Eos: 1%
  Fbg: 224 mg/dL
  Hb: 13.7 g/dL
  Ht: 40.7%
  Lym: 79.8%
  MCH: 21.1 pg
  MCHC: 33.7%
  MCV: 62.7 fL
  Mono: 3.6%
  Neu: 14%
  PT: 13.6 s
  Plat: 122.5 x10_4/uL
  RBC: 649.8 x10_4/ul
  Ret: 6.5%
  WBC: 97.9 x10_2/uL
  KIDNEY_L: 1 g
  KIDNEY_R: 1 g
  KIDNEY_TOTAL: 2.1 g
  LIVER: 11.3 g
  A/G: 1.5
  ALP: 1010.2 IU/L
  ALT: 37 IU/L
  AST: 69 IU/L
  BUN: 13.4 mg/dL
  CRE: 0.4 mg/dL
  Ca: 10.8 mg/dL
  Cl: 101.2 meq/L
  DBIL: 0.09 mg/dL
  GLC: 215.8 mg/dL
  IP: 8.8 mg/dL
  K: 3.8 meq/L
  LDH: 210.6 IU/L
  Na: 139.4 meq/L
  PL: 129.6 mg/dL
  RALB: 3.5 g/dL
  TBIL: 0.1 mg/dL
  TC: 57.6 mg/dL
  TG: 98.2 mg/dL
  TP: 5.8 g/dL
  gamma-GTP: 1 IU/L
